Assay [1] addresses T1, Aurora-A (Homo sapiens, UniProt O14965).
T1 sequence (O14965 1-403): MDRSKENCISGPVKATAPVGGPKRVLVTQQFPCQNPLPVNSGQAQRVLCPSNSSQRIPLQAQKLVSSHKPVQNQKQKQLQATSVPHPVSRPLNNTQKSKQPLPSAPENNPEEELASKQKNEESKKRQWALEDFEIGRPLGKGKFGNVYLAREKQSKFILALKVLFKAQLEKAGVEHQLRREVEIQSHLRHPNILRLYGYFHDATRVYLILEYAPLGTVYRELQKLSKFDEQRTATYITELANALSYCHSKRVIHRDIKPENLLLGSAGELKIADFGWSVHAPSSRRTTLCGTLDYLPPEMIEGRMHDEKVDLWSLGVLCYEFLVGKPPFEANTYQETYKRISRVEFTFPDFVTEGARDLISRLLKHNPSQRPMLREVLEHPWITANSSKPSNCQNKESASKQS
As to the kind of experiment: Aurora-A enzyme assay (MBP-coated Flashplate, γ-33P-ATP). The format is biochemical. The conditions noted are these: IC50 range class; read-out: Inhibitor Activity vs Aurora-A. The gist of the method:
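Aurora-A incubated with γ-33P-ATP in myelin basic protein-coated Flashplate wells, 1 h at 37° C, then washed and scintillation counted. IC50 obtained by sigmoidal variable-slope nonlinear regression of % activity against log compound concentration.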

The test system of assay [2] is HUT cell line. As to the kind of experiment: Cell inhibition assay (SRB cell viability), HUT. The format is cell-based. The conditions noted are these: IC50 range class, 72 h, read-out: Inhibitor Activity vs HUT cell line. The procedure, abridged:
(§1)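 Log-phase cells seeded at 1000 cells/well, grown 24 h, then exposed to compounds (20 uM final) for 72 h. Viability read by sulphorhodamine B staining as % inhibition versus DMSO; IC50 from eight-point sigmoidal variable-slope fit.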

The subject of assay [3] is U937 cell line. As to the kind of experiment: Cell inhibition assay (SRB cell viability), U937. Type of assay: cell-based. The conditions noted are these: Homo sapiens, U-937, IC50 range class, 72 h, read-out: Inhibitor Activity vs U937 cell line. The procedure, abridged:
as §1

Assay [4] deals with Aurora-B (Homo sapiens, UniProt Q96GD4). As to the kind of experiment: Aurora-B enzyme assay (identical protocol as Aurora-A). The format is biochemical. The conditions noted are these: IC50 range class; read-out: Inhibitor Activity vs Aurora-B. The procedure, abridged:
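Aurora-B was assayed in the same way as Aurora-A: kinase and γ-33P-ATP were incubated for 1 h at 37 °C in myelin basic protein-coated scintillation plates. After washing, bound radioactivity was counted. IC50 values came from a variable-slope sigmoidal fit of % activity against log compound concentration.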

Assay [5] has as its system HCT 116 cell line. Kind of assay: Cell inhibition assay (SRB cell viability), HCT 116. The format is cell-based. The conditions noted are these: Homo sapiens, IC50 range class, 72 h, read-out: Inhibitor Activity vs HCT 116 cell line. The procedure, abridged: as §1

Sequence of Aurora-B (Q96GD4 whole entry): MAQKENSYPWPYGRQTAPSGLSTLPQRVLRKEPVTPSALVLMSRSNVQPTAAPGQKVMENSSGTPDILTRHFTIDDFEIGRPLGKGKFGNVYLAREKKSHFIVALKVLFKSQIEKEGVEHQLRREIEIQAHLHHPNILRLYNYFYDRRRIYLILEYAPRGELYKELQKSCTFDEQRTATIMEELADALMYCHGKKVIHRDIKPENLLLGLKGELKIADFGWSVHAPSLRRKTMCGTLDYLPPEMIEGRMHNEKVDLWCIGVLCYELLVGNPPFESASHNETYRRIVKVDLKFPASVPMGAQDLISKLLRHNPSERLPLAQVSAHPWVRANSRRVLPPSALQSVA

As to `COc1cc2c(Oc3ccc(NC(=O)Nc4ccccc4)cc3)ccnc2cc1OCCC[C@H](N)C(=O)OC1CCCC1` [Example 111, (S)-2-Amino-5-{6-methoxy-4-[4-(3-phenyl-ureido)-phenoxy]-quinolin-7-yloxy}-pentanoic acid cyclopentyl ester], the IC50 in assay [1] is 2 to 5 µM; in assay [2], under 1 µM; in assay [3] it was under 1 µM; in assay [4] it was 2 to 5 µM; in assay [5], under 1 µM.

Turning to `COc1cc2c(Sc3ccc(NC(=O)C4CC4)cc3)ccnc2cc1OCC[C@H](N)C(=O)OC1CCCC1` [Example 20, (S)-2-Amino-4-{4-[4-(cyclopropanecarbonyl-amino)-phenylsulfanyl]-6-methoxy-quinolin-7-yloxy}-butyric acid cyclopentyl ester], the IC50 in assay [1] is over 5 µM; in assay [2] it was under 1 µM; in assay [3] it was under 1 µM; in assay [4], over 5 µM; in assay [5] it was under 1 µM.

Regarding `COc1cc2c(Oc3ccc(NC(=O)Nc4ccccc4)cc3)ccnc2cc1OCC[C@@H](N)C(=O)OC1CCCC1` [Example 101, (R)-2-Amino-4-{6-methoxy-4-[4-(3-phenyl-ureido)-phenoxy]-quinolin-7-yloxy}-butyric acid cyclopentyl ester], the IC50 in assay [1] was 2 to 5 µM; in assay [2] it was under 1 µM; in assay [3], under 1 µM; in assay [4] it was under 2 µM; in assay [5], under 1 µM.

Consider `COc1cc2c(Oc3ccc(NC(=O)c4ccccc4)cc3)ccnc2cc1OCC[C@@H](N)C(=O)OC1CCCC1` [Example 99, (R)-2-Amino-4-[4-(4-benzoylamino-phenoxy)-6-methoxy-quinolin-7-yloxy]-butyric acid cyclopentyl ester], for which the IC50 in assay [1] is 2 to 5 µM; in assay [2], under 1 µM; in assay [3], under 1 µM; in assay [4], 2 to 5 µM; in assay [5], under 1 µM.
